PMC7822874, “Chemoprotective antimalarials identified through quantitative high-throughput screening of Plasmodium blood and liver stage parasites” (Scientific Reports, 2021)
Like-named read-outs stand apart in the source and are kept apart here.

How the values were obtained:
Format in all cases: cell-based, Plasmodium falciparum
[1] = system: P. falciparum Dd2 (clone B2) asexual blood stage parasites; test: P. falciparum Dd2 asexual blood stage SYBR Green-I 72 h proliferation assay (qHTS); settings: Plasmodium falciparum
[2] = system: P. falciparum Dd2 Cytb F123L; test: SYBR Green ABS proliferation assay, NCGC00473217 selected clone G08; settings: for AC50: Plasmodium falciparum
Method in brief: (§1)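 Drug-selected Dd2 clones bearing the cytochrome b mutation were cultured at 37 °C under 5% CO2, 5% O2, 90% N2. Growth was read at 72 h by SYBR Green-I fluorescence, normalized to controls as percent response.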

[3] = system: P. falciparum Dd2 Cytb A122D; test: SYBR Green ABS proliferation assay, NCGC00473217 selected clone F12; settings: for AC50: Plasmodium falciparum
Method in brief: as §1

[4] = system: P. falciparum Dd2 Cytb G131S; test: SYBR Green ABS proliferation assay, NCGC00374598 selected clone C11; settings: Plasmodium falciparum
Method in brief: as §1

[5] = system: P. falciparum Dd2 Cytb V259L; test: SYBR Green ABS proliferation assay, NCGC00473217 selected clone F06; settings: for AC50: Plasmodium falciparum
Method in brief: as §1

[6] = DD2, Dd2 parental, Hill fit, averaged from three independent replicates, top concentration 29 µM, read-out: Average AC50 (Log[M]), Dd2 (converted)
[7] = DD2, […], averaged from three independent replicates, top concentration 29 µM, read-out: Average AC50 (Log[M]), NCGC00473217 clone G08 (Cytb F123L) (converted)
[8] = DD2, […], averaged from three independent replicates, top concentration 29 µM, read-out: Average AC50 (Log[M]), NCGC00473217 clone F12 (Cytb A122D) (converted)
[9] = DD2, […], averaged from three independent replicates, top concentration 29 µM, read-out: Average AC50 (Log[M]), NCGC00374598 clone C11 (Cytb G131S) (converted)
[10] = DD2, […], averaged from three independent replicates, top concentration 29 µM, read-out: Average AC50 (Log[M]), NCGC00473217 clone F06 (Cytb V259L) (converted)

Row | Compound | AC50 [1, 6] [M] | AC50 [2, 7] [M] | AC50 [3, 8] [M] | AC50 [4, 9] [M] | AC50 [5, 10] [M] | further results
1 | CCCN1C(CC(C)C)=N[S+](=O)([O-])c2cc(NC(=O)c3cn(-c4ccccc4)cn3)ccc21 [NCGC00521102-01] | 7.67e-06 | 3.56e-06 | 3.56e-08 | 2.62e-07 | 2.99e-06 | –
2 | CCCN1C(CC(C)C)=N[S+](=O)([O-])c2cc(NC(=O)c3ccc(F)s3)ccc21 [NCGC00523537-01] | 1.12e-07 | 3.85e-06 | 7.96e-07 | 3.17e-07 | 8.93e-07 | –
3 | CCCN1C(CC(C)C)=N[S+](=O)([O-])c2cc(NC(=O)c3ccccc3)ccc21 [NCGC00510420-02] | 1e-06 | 2.12e-08 | 1.06e-06 | 4.23e-07 | 1.12e-06 | –
4 | CCCN1C(CC(C)C)=N[S+](=O)([O-])c2cc(NC(=O)c3cc4cccnc4s3)ccc21 [NCGC00521132-01] | 6.7e-06 | 8.93e-06 | 2.99e-06 | 2.82e-06 | 2.99e-06 | –
5 | CCCN1C(CC(C)C)=N[S+](=O)([O-])c2cc(NC(=O)C3CCCCC3)ccc21 [NCGC00521107-01] | 6.32e-06 | 8.93e-06 | 1.04e-05 | 6.32e-06 | 5.02e-06 | –
6 | CCCN1C(CC(C)C)=N[S+](=O)([O-])c2cc(NC(=O)c3sccc3Cl)ccc21 [NCGC00531529-01] | 2.24e-06 | 2.24e-06 | 6.1e-07 | 5.86e-07 | 3.7e-06 | –
7 | CCCN1C(CC(C)C)=N[S+](=O)([O-])c2cc(NC(=O)c3ccc(Cl)c(Cl)c3)ccc21 [NCGC00531756-01] | 2e-05 | 1.42e-05 | 8.93e-06 | 5.97e-06 | 7.38e-06 | –
8 | CCCN1C(CC(C)C)=N[S+](=O)([O-])c2cc(NC(=O)C3CCC3)ccc21 [NCGC00521095-01] | 3.17e-06 | 6.7e-06 | 1e-05 | 3.36e-07 | 2.99e-06 | –
9 | CCCN1C(CC(C)C)=N[S+](=O)([O-])c2cc(NC(=O)c3ccno3)ccc21 [NCGC00521048-01] | 6.1e-06 | 1.89e-07 | 4.66e-06 | 5.02e-06 | 3.17e-06 | –
10 | CCCN1C(CC(C)C)=N[S+](=O)([O-])c2cc(NC(=O)c3ncco3)ccc21 [NCGC00521053-01] | 1.08e-05 | 1.42e-05 | 7.96e-06 | 1.12e-05 | 9.66e-06 | –
11 | CCCN1C(CC(C)C)=N[S+](=O)([O-])c2cc(NC(=O)c3cc4c(s3)CCC4)ccc21 [NCGC00521150-01] | 1.59e-05 | 1.12e-05 | 1.59e-05 | 1.04e-05 | 1.12e-05 | –
12 | CCCN1C(CC(C)C)=N[S+](=O)([O-])c2cc(NC(=O)C3CCCC3)ccc21 [NCGC00521158-01] | 2.72e-06 | 1.17e-05 | 5.22e-06 | 4.15e-06 | 2.16e-06 | –
13 | CCCN1C(CC(C)C)=N[S+](=O)([O-])c2cc(NC(=O)c3sccc3C)ccc21 [NCGC00521035-01] | 1.59e-06 | 9.46e-06 | 2.82e-06 | 1.65e-06 | 6.84e-06 | –
14 | CCCN1C(CC(C)C)=N[S+](=O)([O-])c2cc(NC(=O)c3cc(C)on3)ccc21 [NCGC00521054-01] | 8.93e-06 | 4.48e-06 | 2e-06 | 1.26e-05 | 2e-06 | –
15 | CCCN1C(CC(C)C)=N[S+](=O)([O-])c2cc(NC(=O)c3cc4ncccn4n3)ccc21 [NCGC00521137-01] | 1e-05 | 1.04e-05 | 9.29e-06 | 5.97e-06 | 7.38e-06 | –
16 | CCCN1C(CC(C)C)=N[S+](=O)([O-])c2cc(NC(=O)c3ccc(Cl)s3)ccc21 [NCGC00523535-01] | 1.53e-06 | 9.66e-06 | 5.86e-06 | 1e-06 | 7.1e-06 | –
17 | CCCN1C(CC(C)C)=N[S+](=O)([O-])c2cc(NC(=O)c3ccc4ccccc4n3)ccc21 [NCGC00521161-01] | 5.97e-06 | 2.82e-06 | 3.99e-06 | 7.96e-07 | 2.24e-06 | –
18 | CCCN1C(CC(C)C)=N[S+](=O)([O-])c2cc(NC(=O)c3ccc(-c4ccccc4)s3)ccc21 [NCGC00521113-01] | 5.02e-06 | 2.24e-06 | 5.02e-06 | 1.68e-06 | 1.42e-06 | –
19 | CCCN1C(CC(C)C)=N[S+](=O)([O-])c2cc(N[S+](=O)([O-])c3ccc4ccccc4c3)ccc21 [NCGC00521141-01] | 1.26e-05 | 7.1e-07 | 1.12e-05 | 7.1e-06 | 5.32e-06 | –
20 | CCCN1C(CC(C)C)=N[S+](=O)([O-])c2cc(NC(=O)COc3ccccc3)ccc21 [NCGC00521094-01] | 7.67e-06 | 6.1e-06 | 1.36e-05 | 8.28e-06 | 6.84e-06 | –
21 | CCCN1C(CC(C)C)=N[S+](=O)([O-])c2cc(NC(=O)C34CC5CC(CC(C5)C3)C4)ccc21 [NCGC00521891-01] | 3.56e-06 | 1e-06 | 1.89e-06 | 2.82e-07 | 1.12e-06 | –
22 | CCCN1C(CC(C)C)=N[S+](=O)([O-])c2cc(NC(=O)c3cc(F)cc(F)c3)ccc21 [NCGC00523544-01] | 5.43e-06 | 1.08e-05 | 9.66e-06 | 5.02e-06 | 7.1e-06 | –
23 | CCCN1C(CC(C)C)=N[S+](=O)([O-])c2cc(NC(=O)c3cccc(F)c3)ccc21 [NCGC00523538-01] | 3.85e-06 | 1.12e-05 | 2.72e-06 | 2.08e-06 | 1e-06 | –
24 | CCCN1C(CC(C)C)=N[S+](=O)([O-])c2cc(NC(=O)c3ncccn3)ccc21 [NCGC00521149-01] | 1.12e-05 | 1.42e-05 | 1.04e-05 | 1.59e-05 | 1.19e-05 | –
25 | CCCN1C(CC(C)C)=N[S+](=O)([O-])c2cc(NC(=O)c3ccccc3OC(F)(F)F)ccc21 [NCGC00531535-01] | 1.59e-05 | 1.04e-05 | 1.08e-05 | 8.93e-06 | 9.29e-06 | –
26 | CCCN1C(CC(C)C)=N[S+](=O)([O-])c2cc(NC(=O)c3ccon3)ccc21 [NCGC00521044-01] | 1.26e-05 | 4.15e-07 | 9.46e-06 | 6.7e-06 | 7.96e-06 | –
27 | CCCN1C(CC(C)C)=N[S+](=O)([O-])c2cc(NC(=O)c3cc4ccccc4s3)ccc21 [NCGC00521881-01] | 1.65e-05 | 7.1e-06 | 4.48e-06 | 1.42e-05 | 6.84e-06 | –
28 | Cc1cc(Nc2ccc(S(F)(F)(F)(F)F)cc2)n2nc(C(C)(F)F)nc2n1 [DSM265, reference compound] | – | – | – | – | – | AC50 ([1]; DD2, 72 h, SYBR Green 72 h, WT Dd2-B2, read-out: AC50 Log[M] ± SD, Dd2-B2 (parental line) (converted)): 3.8e-08 M; AC50 ([1]; DD2, Suppl Table 6, read-out: AC50 (mM), WT (Dd2-B2)): 3.8e-08 M; susceptibility of F123L mutant compared to parental line [2]: significantly more susceptible; AC50 ([2]; DD2, NCGC00473217 selected clone, read-out: AC50 Log[M] ± SD, Cytb F123L (converted)): 1.95e-08 M; AC50 ([2]; DD2, Suppl Table 6, read-out: AC50 (mM), Dd2 Cytb F123L): 1.95e-08 M; susceptibility of A122D mutant compared to parental line [3]: significantly more susceptible; AC50 ([3]; DD2, NCGC00473217 selected clone, read-out: AC50 Log[M] ± SD, Cytb A122D (converted)): 1.41e-08 M; AC50 ([3]; DD2, Suppl Table 6, read-out: AC50 (mM), Dd2 Cytb A122D): 1.41e-08 M; AC50 ([4]; DD2, NCGC00374598 selected clone, read-out: AC50 Log[M] ± SD, Cytb G131S (converted)): 2.4e-08 M; AC50 ([4]; DD2, Suppl Table 6, read-out: AC50 (mM), Dd2 Cytb G131S): 2.4e-08 M; susceptibility of V259L variant compared to parental line [5]: unchanged; AC50 ([5]; DD2, NCGC00473217 selected clone, read-out: AC50 Log[M] ± SD, Cytb V259L (converted)): 3.16e-08 M; AC50 ([5]; DD2, Suppl Table 6, read-out: AC50 (mM), Dd2 Cytb V259L): 3.16e-08 M
29 | CCCN1C(CC(C)C)=N[S+](=O)([O-])c2cc(NC(=O)c3ccccn3)ccc21 [NCGC00521133-01] | 9.29e-06 | 1.04e-05 | 1.89e-06 | 1.04e-06 | 7.67e-06 | –
30 | CCCN1C(CC(C)C)=N[S+](=O)([O-])c2cc(NC(=O)c3c(Cl)cnn3C)ccc21 [NCGC00521056-01] | 1.65e-05 | 1.22e-05 | 6.32e-06 | 1.12e-05 | 8.61e-06 | –
